Source: US5487990A (The General Hospital Corporation, priority 1992, dated 1996)
Where “and” joins values, the source holds several entries; their conditions need not be identical. Identical values can stand only once. Entries after “also recorded” stand apart in the source; their conditions may differ. Like-named read-outs stand apart in the source and are kept apart here.

Columns and labels:
[1] = target: T1, Acetyl-CoA Hydrolase from S. cerevisiae (Saccharomyces cerevisiae, UniProt P32316); experiment: biochemical; details: for remaining activity at 100 µM / remaining activity at 1000 µM / remaining activity at 10000 µM / remaining activity at 5000 µM: pH 7.4, read-out: Enzyme Activity (%); for Enzyme Activity (%): 100 mM potassium phosphate, pH 7.4, None = 100
T1 sequence (P32316 1-526): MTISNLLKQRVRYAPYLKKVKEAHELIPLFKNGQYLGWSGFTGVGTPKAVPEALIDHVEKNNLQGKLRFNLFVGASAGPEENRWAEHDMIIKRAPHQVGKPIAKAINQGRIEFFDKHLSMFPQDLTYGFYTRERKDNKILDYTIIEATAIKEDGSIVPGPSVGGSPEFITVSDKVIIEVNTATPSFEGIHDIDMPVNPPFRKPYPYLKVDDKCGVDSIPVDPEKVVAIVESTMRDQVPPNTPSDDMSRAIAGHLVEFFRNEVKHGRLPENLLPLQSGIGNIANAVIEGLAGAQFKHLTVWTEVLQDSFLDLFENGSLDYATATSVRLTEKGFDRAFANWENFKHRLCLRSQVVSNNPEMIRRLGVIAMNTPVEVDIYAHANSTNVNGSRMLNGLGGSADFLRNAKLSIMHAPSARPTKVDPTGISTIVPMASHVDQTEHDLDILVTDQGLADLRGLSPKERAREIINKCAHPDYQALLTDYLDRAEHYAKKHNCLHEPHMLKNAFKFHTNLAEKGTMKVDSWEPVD
Experimental: The assay mixture was incubated at 30° C. for 0.30 s, 1 min, 2 min, 3 min, 4 min, and 5 min. The reaction was stopped by adding 20 μl of 10 M acetic acid. The sample was evaporated by N2 stream at 30° C. to dryness in a fume hood, dissolved in 100 μl H2 O, and transferred to a scintillation vial containing 10 ml Ready-Solv EP scintillation cocktail. The sample tube was washed twice with 100 μl H2 O, each wash was transferred to the scintillation vial, and the radioactivity was determined by scintillation counting for 1 min.
nucleotides and divalent cations in 100 mM potassium phosphate, pH 7.4.
The enzyme activity was determined under standard radioactive assay
conditions using ACTH (1-24) (N = 3), as described in the Examples.
acylCoA in 100 mM phosphate buffer, pH 7.4.

[2] = test system: mitochondrial acetyl-CoA hydrolase; details: cited from earlier work
[3] = target: T1, Acetyl-CoA Hydrolase from S. cerevisiae; experiment: biochemical; assay type: biochemical; details: for remaining activity at 1000 µM / remaining activity at 10000 µM / remaining activity at 500 µM / remaining activity at 5000 µM: read-out: Enzyme Activity (%)
[4] = target: T1, Acetyl-CoA Hydrolase from S. cerevisiae; experiment: Substrate specificity, colorimetric assay (DNTB, A412); assay type: biochemical; details: read-out: Relative Activity (%)
[5] = target: T2, soluble cytosolic acetyl-CoA hydrolase found in rat liver (Rattus norvegicus, UniProt Q99NB7); details: rat liver cytoplasmic, cold-labile enzyme; cited from earlier work
T2 construct: host or cells: rat liver cytoplasm (Prass et al. 1980; Soling et al. 1985)

[6] = target: Human ACTH (1-24) (human) (UniProt P01189)

T2 sequence (Q99NB7 whole entry): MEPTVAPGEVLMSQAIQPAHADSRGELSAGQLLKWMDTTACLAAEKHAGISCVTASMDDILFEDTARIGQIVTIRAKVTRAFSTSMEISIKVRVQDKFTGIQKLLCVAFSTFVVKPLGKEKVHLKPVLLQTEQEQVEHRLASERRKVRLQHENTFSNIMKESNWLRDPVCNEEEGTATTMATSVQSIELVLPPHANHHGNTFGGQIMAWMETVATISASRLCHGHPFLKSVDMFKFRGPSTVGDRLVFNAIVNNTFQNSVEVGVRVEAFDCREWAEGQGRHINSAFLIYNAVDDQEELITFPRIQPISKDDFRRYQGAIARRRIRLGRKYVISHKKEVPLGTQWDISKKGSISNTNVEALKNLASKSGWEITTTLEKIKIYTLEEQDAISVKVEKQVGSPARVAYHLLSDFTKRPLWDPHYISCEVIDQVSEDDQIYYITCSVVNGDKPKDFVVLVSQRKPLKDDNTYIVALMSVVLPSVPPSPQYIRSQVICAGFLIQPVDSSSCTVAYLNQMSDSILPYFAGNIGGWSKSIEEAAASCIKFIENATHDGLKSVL

NC(=O)C1=CN([C@@H]2O[C@H](COP(=O)(O)OP(=O)(O)OC[C@H]3O[C@@H](n4cnc5c(N)ncnc54)[C@H](O)[C@@H]3O)[C@@H](O)[C@H]2O)C=CC1 [βNADH]
effect on enzyme activity (in words) [1]: appreciably decreased enzyme activity
effect on yeast enzyme activity (in words) [1]: inhibited
remaining activity at 100 µM [1]: 83%
remaining activity at 1000 µM [1]: 69%
remaining activity at 10000 µM [1]: 46%
effect on enzyme (in words) [2]: inhibited

CC(=O)n1ccnc1 [N-acetylimidazole]
effect on enzyme activity (in words) [3]: caused inactivation
remaining activity at 1000 µM ([3]; 0.25 h): 101%
remaining activity at 10000 µM ([3]; 0.25 h): 67%

CCCCCCCCCCCCCC(=O)SCCNC(=O)CCNC(=O)[C@H](O)C(C)(C)COP(=O)(O)OP(=O)(O)OC[C@H]1O[C@@H](n2cnc3c(N)ncnc32)[C@H](O)[C@@H]1OP(=O)(O)O [Myristoyl-CoA]
remaining activity at 100 µM [1]: 93%
remaining activity at 1000 µM [1]: 83%
remaining activity at 5000 µM [1]: 52%
activity at 250 µM [4]: 3%

[Ca+2].[Cl-].[Cl-] [CaCl2]
Enzyme Activity (%) ([1]; addition 1 mM): 97%
Enzyme Activity (%) ([1]; addition 10 mM): 84%

O=C1CCC(=O)N1Br [NBS, N-bromosuccinimide]
inactivation of the enzyme (in words) [3]: complete inactivation
remaining activity at 500 µM ([3]; 0.25 h): 30%
remaining activity at 5000 µM ([3]; 0.25 h): 2%
inhibition at 500 µM ([3]; 0.25 h, read-out: inactivation of the enzyme): 70%

Nc1nc2c(ncn2[C@@H]2O[C@H](COP(=O)(O)OP(=O)(O)O)[C@@H](O)[C@H]2O)c(=O)[nH]1 [GDP]
effect on enzyme (in words) [5]: inhibited
effect on enzyme (in words) [2]: not inhibited

OCCS [2-mercaptoethanol]
inactivation by chemical modification (in words) [3]: did not affect enzyme activity
remaining activity at 10000 µM ([3]; 0.25 h): 101%

CC(C)(COP(=O)(O)OP(=O)(O)OC[C@H]1O[C@@H](n2cnc3c(N)ncnc32)[C@H](O)[C@@H]1OP(=O)(O)O)[C@@H](O)C(=O)NCCC(=O)NCCS [CoASH, coenzyme A]
effect on yeast enzyme activity (in words) [1]: only weakly inhibited
inhibition at 25 µM ([1]; read-out: inhibition of hydrolysis of [1-14C] acetyl-CoA): < 30%
effect on enzyme (in words) [5]: inhibited; also recorded: strong product inhibitor
effect on enzyme (in words) [2]: only weakly inhibited; also recorded: weak inhibitor

NC(=O)C1=CN([C@@H]2O[C@H](COP(=O)(O)OP(=O)(O)OC[C@H]3O[C@@H](n4cnc5c(N)ncnc54)[C@H](OP(=O)(O)O)[C@@H]3O)[C@@H](O)[C@H]2O)C=CC1 [βNADPH]
remaining activity at 100 µM [1]: 99%
remaining activity at 1000 µM [1]: 98%
remaining activity at 10000 µM [1]: 96%

O=C1CCC(=O)O1 [Succinic anhydride]
effect on enzyme activity (in words) [3]: no effect; also recorded: partial inactivation
remaining activity at 1000 µM ([3]; 0.25 h): 95%
remaining activity at 10000 µM ([3]; 0.25 h): 79%

CCOC(=O)OC(=O)OCC [DEPC, diethyl pyrocarbonate]
inactivation by chemical modification (in words) [3]: nearly complete inactivation; also recorded: inactivated
remaining activity at 500 µM ([3]; 0.25 h): 19%
remaining activity at 5000 µM ([3]; 0.25 h): 3%

[Zn+2] [Zn^2+]
effect on yeast enzyme activity (in words) ([1]; concentration not given): most potent inhibitor

CCN1C(=O)C=CC1=O [NEM, N-ethylmaleimide]
remaining activity at 1000 µM ([3]; 0.25 h): 94%
remaining activity at 10000 µM ([3]; 0.25 h): 52%

Nc1ncnc2c1ncn2[C@@H]1O[C@H](COP(=O)(O)OP(=O)(O)OP(=O)(O)O)[C@@H](O)[C@H]1O [ATP]
effect on yeast enzyme activity (in words) [1]: not affected
remaining activity at 100 µM [1]: 101%
remaining activity at 1000 µM [1]: 99%
remaining activity at 10000 µM [1]: 96%
effect on enzyme (in words) [2]: not activated; also recorded: not affected

[Cl-].[Cl-].[Co+2] [CoCl2]
Enzyme Activity (%) ([1]; addition 1 mM): 86%
Enzyme Activity (%) ([1]; addition 10 mM): 51%

CC(C)(COP(=O)(O)OP(=O)(O)OC[C@H]1O[C@@H](n2cnc3c(N)ncnc32)[C@H](O)[C@@H]1OP(=O)(O)O)[C@@H](O)C(=O)NCCC(=O)NCCSC(=O)CC(=O)O [Malonyl-CoA]
remaining activity at 100 µM [1]: 93%
remaining activity at 1000 µM [1]: 83%
remaining activity at 5000 µM [1]: 52%
activity at 250 µM [4]: 1%

Nc1ncnc2c1ncn2[C@@H]1O[C@H](COP(=O)(O)O)[C@@H](O)[C@H]1O [AMP]
remaining activity at 100 µM [1]: 96%
remaining activity at 1000 µM [1]: 89%
remaining activity at 10000 µM [1]: 81%

CCC(=O)SCCNC(=O)CCNC(=O)[C@H](O)C(C)(C)COP(=O)(O)OP(=O)(O)OC[C@H]1O[C@@H](n2cnc3c(N)ncnc32)[C@H](O)[C@@H]1OP(=O)(O)O [Propionyl-CoA]
remaining activity at 100 µM [1]: 92%
remaining activity at 1000 µM [1]: 89%
remaining activity at 5000 µM [1]: 72%
activity at 250 µM [4]: 9%

CCCC(=O)SCCNC(=O)CCNC(=O)[C@H](O)C(C)(C)COP(=O)(O)OP(=O)(O)OC[C@H]1O[C@@H](n2cnc3c(N)ncnc32)[C@H](O)[C@@H]1OP(=O)(O)O [Butyryl-CoA]
remaining activity at 100 µM [1]: 95%
remaining activity at 1000 µM [1]: 86%
remaining activity at 5000 µM [1]: 62%
activity at 250 µM [4]: 4%

CC(=O)CC(=O)SCCNC(=O)CCNC(=O)[C@H](O)C(C)(C)COP(=O)(O)OP(=O)(O)OC[C@H]1O[C@@H](n2cnc3c(N)ncnc32)[C@H](O)[C@@H]1OP(=O)(O)O [Acetoacetyl-CoA]
remaining activity at 100 µM [1]: 98%
remaining activity at 1000 µM [1]: 92%
remaining activity at 5000 µM [1]: 90%
activity at 250 µM [4]: 5%

C[S+](C)Cc1cc([N+](=O)[O-])ccc1O.[Br-] [HNBS(CH3)2 --Br, dimethyl-(2-hydroxy-5-nitrobenzyl)sulfonium bromide]
inactivation by chemical modification (in words) [3]: partially inactivated
remaining activity at 1000 µM ([3]; 0.25 h): 84%
remaining activity at 10000 µM ([3]; 0.25 h): 71%

NO [hydroxylamine]
original enzyme activity recovered ([3]; depc-inactivated acetyl-coa hydrolase, 480 min, 250000 µM): ≈ 55%

O[C@@H](CS)[C@@H](O)CS (relative stereo) [DTT]
inactivation by chemical modification (in words) [3]: did not affect enzyme activity
remaining activity at 10000 µM ([3]; 0.25 h): 104%

O=S(=O)([O-])[O-].[Fe+2] [FeSO4]
Enzyme Activity (%) ([1]; addition 1 mM): 98%
Enzyme Activity (%) ([1]; addition 10 mM): 88%

Nc1ncnc2c1ncn2[C@@H]1O[C@H](COP(=O)(O)OP(=O)(O)O)[C@@H](O)[C@H]1O [ADP]
effect on yeast enzyme activity (in words) [1]: not affected
remaining activity at 100 µM [1]: 98%
remaining activity at 1000 µM [1]: 94%
remaining activity at 10000 µM [1]: 91%
effect on enzyme (in words) [5]: inhibited
effect on enzyme (in words) [2]: not inhibited; also recorded: not affected

yeast N-alpha-acetyltransferase (enzyme)
transfer of [3H] acetyl group from [3H] acetyl-CoA to ACTH (1-24), units [6]: 63300 units

O=S(=O)([O-])[O-].[Zn+2] [ZnSO4]
Enzyme Activity (%) ([1]; addition 1 mM): 88%
Enzyme Activity (%) ([1]; addition 10 mM): 25%

O=S(=O)([O-])[O-].[Cu+2] [CuSO4]
Enzyme Activity (%) ([1]; addition 1 mM): 94%
Enzyme Activity (%) ([1]; addition 10 mM): 89%

[Cl][Cd][Cl] [CdCl2]
Enzyme Activity (%) ([1]; addition 1 mM): 91%
Enzyme Activity (%) ([1]; addition 10 mM): 48%

CC(C)(COP(=O)(O)OP(=O)(O)OC[C@H]1O[C@@H](n2cnc3c(N)ncnc32)[C@H](O)[C@@H]1OP(=O)(O)O)[C@@H](O)C(=O)NCCC(=O)NCCSC(=O)CCC(=O)O [Succinyl-CoA]
remaining activity at 100 µM [1]: 92%
remaining activity at 1000 µM [1]: 79%
remaining activity at 5000 µM [1]: 56%
activity at 250 µM [4]: 8%

O=C(O)c1cc[c]([Hg][Cl])cc1 [pCMB, p-chloromercuribenzoate]
Enzyme Activity (%) [3]: 102% and 88%

NC(=O)c1ccc[n+]([C@@H]2O[C@H](COP(=O)([O-])OP(=O)(O)OC[C@H]3O[C@@H](n4cnc5c(N)ncnc54)[C@H](O)[C@@H]3O)[C@@H](O)[C@H]2O)c1 [βNAD]
remaining activity at 100 µM [1]: 100%
remaining activity at 1000 µM [1]: 98%
remaining activity at 10000 µM [1]: 95%

[Cl][Mn][Cl] [MnCl2]
Enzyme Activity (%) ([1]; addition 1 mM): 84%
Enzyme Activity (%) ([1]; addition 10 mM): 64%

O=C(O)CI [IAA, iodoacetic acid]
remaining activity at 1000 µM ([3]; 0.25 h): 99%
remaining activity at 10000 µM ([3]; 0.25 h): 89%

[Cl-].[Cl-].[Mg+2] [MgCl2]
Enzyme Activity (%) ([1]; addition 1 mM): 95%
Enzyme Activity (%) ([1]; addition 10 mM): 72%

NC(=O)CI [IAM, iodoacetamide]
effect on enzyme activity (in words) [3]: no effect; also recorded: partially inactivated
remaining activity at 1000 µM ([3]; 0.25 h): 97%
remaining activity at 10000 µM ([3]; 0.25 h): 85%

O=S(=O)([O-])[O-].[Mg+2] [MgSO4]
Enzyme Activity (%) ([1]; addition 1 mM): 98%
Enzyme Activity (%) ([1]; addition 10 mM): 75%
